Experimental findings from PubChem BioAssay (NCI) are described below.

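Compound exposure: 48 hours, 5 concentrations, 96-well plates. TGI denotes the concentration required for complete inhibition of growth.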

Some test systems named below: ACHN renal; LOX IMVI melanoma; NCI-H460 lung; SK-MEL-2 melanoma; COLO 205 colon; HOP-92 NSCLC; SK-MEL-5 melanoma; TK-10 renal; T-47D breast; SNB-19 CNS; HCC-2998 colon.
Holding throughout (assay): growth of human tumour cells (NCI), 48 h

With `C=CCN1C(=O)/C(=C/c2ccc(C)cc2)N=C1SC/C=C/C`, the TGI is above 100 µM with ACHN renal; 44.5 µM in the test with LOX IMVI melanoma; above 100 µM in the test on NCI-H460 lung; 57.7 µM in the test with SK-MEL-2 melanoma; 90.5 µM in the test on COLO 205 colon; 90.9 µM in the test with HOP-92 NSCLC. The TGI with SK-MEL-5 melanoma is 44.6 µM; with TK-10 renal, above 100 µM; in the test on T-47D breast, 83.3 µM; in the test with SNB-19 CNS, above 100 µM; in the test on HCC-2998 colon, above 100 µM.
Consider `Cc1ccc(S(=O)(=O)N2CCSCCSCCN(S(=O)(=O)c3ccc(C)cc3)CCN(S(=O)(=O)c3ccc(C)cc3)CC2)cc1`, for which the TGI with ACHN renal, with LOX IMVI melanoma, with NCI-H460 lung, with SK-MEL-2 melanoma, in the test on COLO 205 colon and with HOP-92 NSCLC was above 100 µM in each case. Besides, the TGI with SK-MEL-5 melanoma, in the test on TK-10 renal, with T-47D breast, in the test with SNB-19 CNS and in the test with HCC-2998 colon was above 100 µM each time.
`CCOC(=O)CCC(NC(=O)c1ccc(CNc2nc3cc(N)cc(N)c3nc2-c2ccccc2)cc1)C(=O)OCC` (stereo not drawn): the TGI is above 100 µM in the test with ACHN renal; above 100 µM with LOX IMVI melanoma; above 100 µM in the test on NCI-H460 lung; above 87.9 µM with SK-MEL-2 melanoma; above 100 µM with COLO 205 colon; above 100 µM with HOP-92 NSCLC. Besides, the TGI was above 100 µM in the test on SK-MEL-5 melanoma; above 100 µM in the test on TK-10 renal; 49.1 µM with T-47D breast; above 100 µM in the test on SNB-19 CNS; above 100 µM in the test on HCC-2998 colon.
For the compound `O=C(CCCCCCCCC(=O)NN1C(=O)/C(=C\c2ccc(O)c(O)c2)SC1c1c(O)ccc2ccccc12)NN1C(=O)C(=Cc2ccc(O)c(O)c2)SC1c1c(O)ccc2ccccc12` (stereo not drawn), the TGI in the test with ACHN renal was above 100 µM; in the test on LOX IMVI melanoma, 13 µM; in the test on NCI-H460 lung, above 100 µM; in the test with SK-MEL-2 melanoma, above 38.6 µM; in the test with COLO 205 colon, 73.5 µM; with HOP-92 NSCLC, above 62.7 µM. Besides, the TGI was 19.4 µM in the test with SK-MEL-5 melanoma; above 100 µM with TK-10 renal; 62.1 µM in the test on T-47D breast; above 70.3 µM in the test with SNB-19 CNS; above 100 µM in the test on HCC-2998 colon.
With `Oc1ccc2c(c1)OCC(O)(c1ccccc1O)C2` (stereo not drawn), the TGI with ACHN renal, with LOX IMVI melanoma, in the test on NCI-H460 lung, in the test with SK-MEL-2 melanoma, in the test with COLO 205 colon and in the test on HOP-92 NSCLC was above 100 µM in each case. For the same compound, the TGI with SK-MEL-5 melanoma, in the test with TK-10 renal, in the test on T-47D breast, in the test on SNB-19 CNS and in the test on HCC-2998 colon was above 100 µM throughout.
Take `CC(SC(=S)N1CCCCC1)C(=O)Nc1nnc(-c2ccc(Cl)cc2)o1` (stereo not drawn): the TGI with ACHN renal was above 100 µM; in the test with LOX IMVI melanoma, above 100 µM; in the test on NCI-H460 lung, above 100 µM; with SK-MEL-2 melanoma, 77.1 µM; in the test on COLO 205 colon it was above 100 µM; in the test on HOP-92 NSCLC, above 100 µM. Also, the TGI in the test with SK-MEL-5 melanoma, in the test on TK-10 renal, in the test on T-47D breast, in the test on SNB-19 CNS and in the test on HCC-2998 colon was above 100 µM throughout.
For `Cc1cc2c(cc1O)CC[C@@H]1[C@@H]2CC[C@]2(C)[C@@H](O)CC[C@@H]12`, the TGI in the test on ACHN renal came to 51.9 µM; in the test with LOX IMVI melanoma, 27 µM; in the test with NCI-H460 lung it was 29.8 µM; with SK-MEL-2 melanoma, 19.8 µM; in the test with COLO 205 colon it was 32.5 µM; in the test on HOP-92 NSCLC it was 30.4 µM. Moreover, the TGI was 16.1 µM in the test on SK-MEL-5 melanoma; 91.5 µM in the test on TK-10 renal; 38.9 µM in the test with T-47D breast; 33.1 µM in the test on SNB-19 CNS; 24.1 µM in the test on HCC-2998 colon.
On to `CC1=C(C(=O)OCCO[N+](=O)[O-])C(c2ccccc2C(F)(F)F)C(C(=O)OC(C)C)=C(C)N1` (stereo not drawn), for which the TGI with ACHN renal is above 100 µM; in the test with LOX IMVI melanoma, 27.3 µM; with NCI-H460 lung it was 58.6 µM; in the test with SK-MEL-2 melanoma, 29.7 µM; in the test with COLO 205 colon, 28.4 µM; in the test with HOP-92 NSCLC, 26.8 µM. The TGI is 22.1 µM with SK-MEL-5 melanoma; 77.4 µM in the test on TK-10 renal; above 100 µM with T-47D breast; 78.3 µM in the test with SNB-19 CNS; above 100 µM in the test on HCC-2998 colon.
